The structures appear in SMILES notation.

The record followed here is US20140275143A1, “Compositions Comprising An Opioid And An Additional Active Pharmaceutical Ingredient For Rapid Onset And Extended Duration Of Analgesia That May Be Administered Without Regard To Food” (MALLINCKRODT LLC, priority 2013, published 2014).

Data set [1] is described as follows: Dose proportionality and linearity of oxycodone (Example 34). The format is in vivo, human. Conditions: CR OC/APAP; for AUC0-inf vs dose, Slope / AUC0-inf vs dose, y-Intercept / Cmax vs dose, Slope / Cmax vs dose, y-Intercept: linearity; for Dose-normalized AUC0-inf vs dose, Slope / Dose-normalized AUC0-inf vs dose, y-Intercept / Dose-normalized Cmax vs dose, Slope / Dose-normalized Cmax vs dose, y-Intercept: proportionality. The protocol: Data were pooled from randomized, crossover, single- and multiple-dose studies conducted in healthy adults (aged 18-55 years) to evaluate the dose proportionality and dose linearity of the oxycodone component of CR OC/APAP when administered as 1, 2, or 4 tablets (7.5 mg, 15 mg, or 30 mg oxycodone, respectively). […] (See selected example from Chart No. 1)
The following treatments were administered under fasted conditions: • Single-dose studies: 1, 2, or 4 tablets of CR OC/APAP (7.5 mg, 15 mg, or 30 mg oxycodone, respectively) (see selected example from Chart No. 1) administered orally once • Multiple-dose studies: 1 or 2 tablets of CR OC/APAP (7.5 mg or 15 mg oxycodone, respectively) (see selected example from Chart No. 1) administered every 12 hours for 4.5 days (9 doses)
(§1) One single-dose study (highest dosage) enrolled healthy recreational drug users; all other studies enrolled healthy subjects with specific exclusions for drug use.
(§2) Area under the plasma oxycodone concentration-time curve from time 0 extrapolated to infinity (AUC0-inf) and maximum plasma concentration (Cmax)) were compared across dose levels of CR OC/APAP. […] For a linear PK system, the measures of exposure, such as maximal blood concentration (Cmax) or area under the curve from 0 to infinity (AUC) on the y-axis, are linearly (i.e., by a straight line) related to dose on the x-axis. Dose proportionality for CR OC/APAP was assessed; dose proportionality occurs when increases in the administered dose are accompanied by proportional increases in a measure of exposure, such as AUC or Cmax.
(§3) AUC0-inf and Cmax were divided by dose (dose-normalized) for dose proportionality analyses. Dose normalization (calculated as plasma concentration divided by dose) was utilized to compare concentration across different dosage strengths. Dose linearity and proportionality were determined using linear regression of non-transformed data, including 95% confidence intervals (CIs) and 95% prediction limits. Slope, y-intercept, and R^2 were calculated. The slope and the intercept together define the linear relationship between dose and AUC, or dose and Cmax. The coefficient of determination, R^2, represents the proportion of variability in a data set that is accounted for by a statistical model.

Data set [2] in a line: Dose proportionality and linearity of acetaminophen (Example 33). Format: in vivo, human. Conditions: CR OC/APAP; for AUC0-inf vs dose, Slope / AUC0-inf vs dose, y-Intercept / Cmax vs dose, Slope / Cmax vs dose, y-Intercept: linearity; for Dose-normalized AUC0-inf vs dose, Slope / Dose-normalized AUC0-inf vs dose, y-Intercept / Dose-normalized Cmax vs dose, Slope / Dose-normalized Cmax vs dose, y-Intercept: proportionality.
Source text: (See selected example from Chart No. 1)
as §1
as §2, with “APAP” for “oxycodone”
as §3

Turning to `COc1ccc2c3c1O[C@H]1C(=O)CC[C@@]4(O)[C@@H](C2)N(C)CC[C@]314` [Oxycodone], in data set [1] (Multiple-Dose), the “AUC0-inf vs dose, Slope” value was 14.151; the “AUC0-inf vs dose, y-Intercept” value is reported as −3.774; the “Cmax vs dose, Slope” value is recorded as 1.640; the “Cmax vs dose, y-Intercept” value came to 0.362. Also, in data set [1] (Multiple-Dose), the “Dose-normalized AUC0-inf vs dose, Slope” value is 0.033; the “Dose-normalized AUC0-inf vs dose, y-Intercept” value worked out at 13.397; the “Dose-normalized Cmax vs dose, Slope” value was −0.003; the “Dose-normalized Cmax vs dose, y-Intercept” value came out at 1.712. Moreover, in data set [1] (Single-Dose), the “AUC0-inf vs dose, Slope” value is given as 11.093; the “AUC0-inf vs dose, y-Intercept” value was determined as 7.202; the “Cmax vs dose, Slope” value amounted to 1.050; the “Cmax vs dose, y-Intercept” value is −0.417. Also, in data set [1] (Single-Dose), the “Dose-normalized AUC0-inf vs dose, Slope” value is −0.024; the “Dose-normalized AUC0-inf vs dose, y-Intercept” value was 12.015; the “Dose-normalized Cmax vs dose, Slope” value is −0.001; the “Dose-normalized Cmax vs dose, y-Intercept” value came out at 1.041.

`CC(=O)Nc1ccc(O)cc1` [acetaminophen]: in data set [2] (Multiple-Dose), the “AUC0-inf vs dose, Slope” value was found to be 40.177; the “AUC0-inf vs dose, y-Intercept” value amounted to 2249.134; the “Cmax vs dose, Slope” value stood at 7.079; the “Cmax vs dose, y-Intercept” value stood at 816.140. Moreover, in data set [2] (Multiple-Dose), the “Dose-normalized AUC0-inf vs dose, Slope” value is listed as −0.011; the “Dose-normalized AUC0-inf vs dose, y-Intercept” value is listed as 50.557; the “Dose-normalized Cmax vs dose, Slope” value is −0.004; the “Dose-normalized Cmax vs dose, y-Intercept” value turned out to be 10.845. Also, in data set [2] (Single-Dose), the “AUC0-inf vs dose, Slope” value was 41.021; the “AUC0-inf vs dose, y-Intercept” value is given as 4024.292; the “Cmax vs dose, Slope” value is reported as 6.336; the “Cmax vs dose, y-Intercept” value turned out to be 467.019. In data set [2] (Single-Dose), the “Dose-normalized AUC0-inf vs dose, Slope” value is −0.007; the “Dose-normalized AUC0-inf vs dose, y-Intercept” value turned out to be 52.943; the “Dose-normalized Cmax vs dose, Slope” value is −0.001; the “Dose-normalized Cmax vs dose, y-Intercept” value is on record as 7.877.
